# Data published in PMC5352699, “Synthesis and in vitro antitumor activity of (1E,4E)-1-aryl-5-(2-((quinazolin-4-yl)oxy)phenyl)-1,4-pentadien-3-one derivatives” (Chemistry Central Journal, 2017).
# Experiments:
# [1] = system: MGC-803 cells; assay: TUNEL assay; assay type: cell-based, human; settings: 5 μM, 5f 6, 12, and 18 h, HCPT 18 h
# Protocol: To further verify AO/EB and Hoechst 33,258 staining results, TUNEL assay was also carried out. TUNEL (Terminal deoxynucleotidyl Transferase Biotin-dUTP Nick End Labeling) is a very popular assay for identifying apoptotic cells. The assay identifies apoptotic cells in situ by using terminal deoxynucleotidyl transferase (TdT) to transfer biotin-dUTP to these strand breaks of cleaved DNA. The biotin-labeled cleavage sites are then detected by reaction with HRP conjugated streptavidin and visualized by DAB showing brown color [24]. MGC-803 cells treated with compound 5f at 5 μM for 6, 12, and 18 h were stained with TUNEL, with HCPT as positive control at 5 μM for 18 h. […] We further concluded that compound 5f induced apoptosis against MGC-803.
# [2] = system: MGC-803 cells; assay: AO/EB staining for apoptosis; assay type: cell-based, human; settings: 12 h, 5f at 1, 5, 10 μM, HCPT at 10 μM
# Protocol: It is well known that AO can pass through cell membranes, but EB cannot. Under the fluorescence microscope, living cells appear green. Necrotic cells stain red but have a nuclear morphology resembling that of viable cells. Apoptotic cells appear green, and morphological changes such as cell blebbing and formation of apoptotic bodies will be observed.
# Representative images of the cells treated with 10 μM of HCPT (used as positive control) and 1, 5, 10 μM of compound 5f for 12 h are shown in Fig. 2a.
# (§1) Cells were seeded in 6-well culture plates at a density of 5 × 10^4 cells/mL in 0.6 mL of medium and allowed to adhere to the plates overnight. The cells were incubated with different concentrations of compounds or vehicle solution (0.1% DMSO) in a medium containing 10% FBS for 12 h. After the treatment, the cover slip with monolayer cells was inverted on the glass slide with 20 μL of AO/EB stain (100 μg/mL), and finally analyzed for morphological characteristics of cell apoptosis under a fluorescence microscope (Olympus Co., Japan).
# [3] = system: MGC-803 cells; assay: Flow cytometry, Annexin V/PI double staining; assay type: cell-based, human; settings: for apoptosis ratio: MGC-803 cells, 10 μM, 24 h
# Protocol: In addition, the apoptosis ratios induced by compound 5f in MGC-803 cells were determined by flow cytometry, using Annexin V/PI double staining. Flow cytometry was performed on the total cell population (including both adherent and detached cells) and apoptosis detection was carried out as mentioned above. This double staining procedure discriminated necrotic cells (Q1, Annexin^−/PI^+), late apoptotic cells (Q2, Annexin^+/PI^+), intact cells (Q3, Annexin^−/PI^−) and early apoptotic cells (Q4, Annexin^+/PI^−). […] For the positive control HCPT, the apoptosis ratio was only 22.3% after 24 h of treatment at a concentration of 10 μM.
# To further quantitative analysis of apoptosis, the cells were washed with PBS, stained with annexinV-FITC and propidium iodide (PI) using the AnnexinV-FITC kit (KeyGEN BioTECH). The cells were then subjected to flow cytometry according to manufacturer’s instructions and the stained cells were analyzed by FACS can flow cytometer (Becton–Dickinson, CA, USA).
# [4] = system: human breast cancer cell line Bcap-37; assay: MTT assay, Bcap-37 cells; assay type: cell-based
# Protocol: (§2) The in vitro antitumor activity of the newly synthesized compounds 5a–5n were evaluated against a panel of three human cancer cell lines, including human gastric cancer cell line MGC-803, human prostate cancer cell line PC3, and human breast cancer cell line Bcap-37, and one normal cell line NIH3T3 (mouse embryo fibroblast cell line) by MTT method. Adriamycin (ADM) was chosen as a reference drug due to its availability and widespread use. Each experiment was repeated at least three times.
# (§3) Human gastric cancer cell line MGC-803, human prostate cancer cell line PC3, and human breast cancer cell line Bcap-37 and one normal cell line NIH3T3 were obtained from Cell Bank of Type Culture Collection of Chinese Academy of Sciences (Shanghai, China). NIH3T3 was routinely maintained in a DMEM medium, while all the other cell lines were cultured in a 1640 medium. All the cells were grown in the medium supplemented with 10% FBS at 37 °C with 5% CO2.
# (§4) The growth-inhibitory effects of the test compounds were determined on MGC-803, PC3, Bcap-37, and NIH3T3 cells. All cell types were seeded into 96-well plates at a density of 2 × 10^3 cells/well 100 μL of the proper culture medium and incubated with increasing concentrations of the compounds at 37 °C under cell culturing conditions. An MTT assay (Roche Molecular Biochemicals, 1465-007) was performed 72 h later according to the instructions provided by Roche. The precipitated formazan crystals were dissolved in SDS, and the absorbance was read at 595 nm with a microplate reader (BIO-RAD, model 680), which is directly proportional to the number of living cells in culture. The experiment was performed in triplicate. The percentage cytotoxicity was calculated using the formula. %Cytotoxicity=Controlabs-Blankabs-Testabs-Blankabs/Controlabs-Blankabs×100
# [5] = system: MGC-803 cells; assay: Hoechst 33,258 staining for apoptosis; assay type: cell-based, human; settings: MGC-803 cells, 1, 5, and 10 μM, 12 h
# Protocol: Membrane-permeable Hoechst 33,258 was a blue fluorescent dye and stained the cell nucleus. […] MGC-803 cells treated with compound 5f at concentrations of 1, 5, and 10 μM for 12 h were stained with Hoechst 33,258, with HCPT as positive control at 10 μM for 12 h. The results are illustrated in Fig. 2b.
# as §1, with “cells were fixed” for “cover slip”, “4% paraformaldehyde for 10 min, followed by incubation” for “monolayer cells was inverted on the glass slide”, “Hoechst 33,258 staining solution (Beyotime) for 5 min” for “20 μL of AO/EB stain (100 μg/mL),”
# [6] = system: normal cell line NIH3T3 (mouse embryo fibroblast cell line); assay: MTT assay, NIH3T3 normal cells; assay type: cell-based; settings: 72 h, read-out: Inhibition rates against different cells (%) NIH3T3
# Protocol: as §2, §3, §4
# [7] = system: human prostate cancer cell line PC3; assay: MTT assay, PC3 cells; assay type: cell-based
# Protocol: as §2, §3, §4
# [8] = system: human gastric cancer cell line MGC-803; assay: MTT assay, MGC-803 cells; assay type: cell-based
# Protocol: as §2, §3, §4
"IC50 ([4]; Bcap37, 72 h after treatment) [µM]","IC50 ([7]; PC-3, 72 h after treatment) [µM]",IC50 ([8]; 72 h after treatment) [µM],SMILES,TUNEL staining [1],"AO/EB staining, apoptotic morphology [2]",apoptosis ratio [3] [%],"inhibition at 10 µM ([4]; Bcap37, 10 μM, 72 h, read-out: Inhibition rates against different cells (%) Bcap-37) [%]","Hoechst 33,258 staining, apoptotic morphology [5]",inhibition at 10 µM [6] [%],"inhibition at 10 µM ([7]; PC-3, 10 μM, 72 h, read-out: Inhibition rates against different cells (%) PC3) [%]","apoptosis of MGC-803 cells over time ([3]; 10 μM for 6, 12, and 24 h)","inhibition at 10 µM ([8]; 10 μM, 72 h, read-out: Inhibition rates against different cells (%) MGC-803) [%]"
–,–,–,"CC[C@@]1(O)C(=O)OCc2c1cc1n(c2=O)Cc2cc3cc(O)ccc3nc2-1 [HCPT, 10-hydroxyl camptothecine, reference compound]",appeared as brown precipitate,apoptotic cells with typical apoptotic features,22.3,–,–,–,–,–,–
4.98 ± 0.39,1.37 ± 0.22,0.85 ± 0.43,"Cc1ccc2ncnc(Oc3ccccc3/C=C/C(=O)/C=C/c3c(Cl)cccc3Cl)c2c1 [Compound 5f, (1E,4E)-1-(2,6-dichlorophenyl)-5-(2-((6-methylquinazolin-4-yl)oxy)phenyl)penta-1,4-dien-3-one]",appeared as brown precipitate,apoptotic cells with typical apoptotic features,26.4,76.5 ± 1.9,exhibited strong blue fluorescence and revealed typical apoptotic morphology,21.5 ± 2.7,93 ± 1.8,gradually increased in a time-dependent manner,90.7 ± 0.6
